The source of these data is patent EP2229935A1, “Peptide derivatives or pharmaceutically acceptable salts thereof, method for producing the same, use of said derivatives and pharmaceutical composition” (Nebolsin, Vladimir Evgenievich, priority 1997, dated 1999).

Experiment [1] relates to Lewis pulmonary carcinoma (LLC). In words: LLC metastasizing with surgical resection of the primary tumor node, alone and with Cyclophosphane. It is filed as in vivo, C57BL/6 female mice. The conditions noted are these: 96 hour interval, 100 µg/kg. How it is done: An important property of the compounds is their ability to manifest pharmacological activity on the model with resection of the primary tumor node and not to lower therapeutic efficacy of respective antitumor drugs. […] Surgical resection of the primary tumor node was performed by day 13 following tumor transplantation. The test anitumor compounds were administered according to two dosage regimens:
Dosage regimen 1 - animals were administered compound III from day 1 till day 13 of experiment at a dose 500 µg/kg (group 1); Cyclophosphane was administered intraperitoneally two times before operation with 96 hour interval at a dose 100 µg/kg (group 2); combined administration of compound III and Cyclophosphane was similar to administration of substances in groups 1 and 2 (group 3). Number of metastases was calculated by day 29 of experiment;
Dosage regimen 2 - animals were administered compound III from day 14 of experiment (commencement of administration 24 hours post operation) till day 28 (group 4); Cyclophosphane was administered twice post operation with 96 hour interval at a dose 100 µg/kg (group 5); combined administration of compound III and Cyclophosphane similar to administration of substances in groups 4 and 5 (group 6). Antimetastatic efficacy of the drugs was considered by day 29 of experiment.

The test system of experiment [2] is peripheral blood neutrophils. The experiment is described as follows: Activity of peripheral blood neutrophils in mice with LLC. Particulars: Cyclophosphane 5 times 20.0 mg/kg (in 48 hours) for 10 days. The experiment is classed as in vivo, C57BL/6 female mice. How it is done:
Experiments were carried out on C57BL/6 female mice with intramuscularly transplanted LLC carcinoma. Activity of neutrophils was measured by days 11 and 14.
• control - animals with LLC tumor, 10 animals; • animals with LLC tumor + compound III at a dose 500.0 µg/kg for 10 days. 8 animals; • animals with LLC tumor + Cyclophosphane 5 times at a dose 20.0 mg/kg (in 48 hours) for 10 days, 8 animals; • compound III and Cyclophosphane according to the above dosage regimen, 8 animals.
Experiment duration was 14 days.

Setting [3] is: regimen 1: intraperitoneally two times before operation.
[4] abbreviates: regimen 2: twice post operation.

Regarding `O=P1(N(CCCl)CCCl)NCCCO1` (stereo not drawn) [Cyclophosphane, reference compound], the “Mean number of metastases” value was determined as 19.5 ± 5.1 in experiment [1] (setting [3]) and 18.0 ± 4.3 in experiment [1] (setting [4]). In addition, the Metastasizing inhibition percent in experiment [1] (setting [3]) came to 43.9%; in experiment [1] (setting [4]), 51.5%. The “Metastasizing rate (%)” value in experiment [1] (setting [3]) and in experiment [1] (setting [4]) was 100% each time. In addition, the “Percent of active neutrophils” value in experiment [2] (Background) worked out at 21.5 ± 3.4%; in experiment [2] (day 11), 7.6 ± 2.0%; in experiment [2] (day 14), 20.6 ± 6.0%.
